Assay results taken from PubChem BioAssay AID651964 (The Scripps Research Institute Molecular Screening Center, 2012).

Legend:
Test in all cases: PubChem AID 651964; call rule not given here
[1] = system: BiP; conditions: mouse embryonic fibroblasts, qRT-PCR mRNA fold induction, at 10 µM (top of the series)
[2] = molecular target: DNA damage-inducible transcript 3 protein (Mus musculus) (UniProt P35639); conditions: mouse embryonic fibroblasts, qRT-PCR mRNA fold induction; CHOP; at 10 µM (top of the series)
[3] = system: GCLM; conditions: mouse embryonic fibroblasts, qRT-PCR mRNA fold induction, at 10 µM (top of the series)
[4] = system: HO-1; conditions: mouse embryonic fibroblasts, qRT-PCR mRNA fold induction, at 10 µM (top of the series)
[5] = system: Hsp70; conditions: mouse embryonic fibroblasts, qRT-PCR mRNA fold induction, at 10 µM (top of the series)

Measured: fold induction of mRNA

Chain of DNA damage-inducible transcript 3 protein (Mus musculus) (P35639 whole entry, looked up): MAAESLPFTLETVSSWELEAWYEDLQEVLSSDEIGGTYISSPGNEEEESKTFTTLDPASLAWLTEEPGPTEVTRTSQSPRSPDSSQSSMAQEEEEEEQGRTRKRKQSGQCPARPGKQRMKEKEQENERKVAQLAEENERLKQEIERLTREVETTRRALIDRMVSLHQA

COc1ccc(/C=C/C=C2C(=O)NC(=O)NC2=O)cc1
active: [1] 2.18 | [2] 2.08 | [3] 1.6 | [4] 5.54 | [5] 18.9
